Read-outs that look alike come from different tables or passages of the source.
Legend:
[1] = biological target: B-Raf delta1-415 (Homo sapiens, UniProt P15056); test: B-Raf kinase inhibition (MAPH filter plate, 33P-ATP, MEK1 substrate); settings: read-out: Biochemical IC50 B-Raf
From the text: We characterized the in vitro inhibitory activity against protein kinases of compounds of the present invention by determining their IC50 values (see Table 2).
Kinase: B-Raf delta1-415 (e.g., Upstate Cat. No. 14-530)
Reaction Temperature: room temperature
Assay Plate: 96 well U bottom plate (Greiner, 650161)
MultiScreen-PH Plate: 96 well MAPH Filter Plates (Millipore, MAPHNOB50)
Filter Washing Solution: 0.75% H3PO4
Szintilation Liquid: Supermix Liquid Szintillator (PerkinElmer, 1200-439)
Negative Control (C−): 100 mM EDTA, no Inhibitor
Positive Control (C+): no Inhibitor
Reaction Buffer: 20 mM Mops, pH 7.0 • 10 mM MgCl2 • 0.4 mM MnCl2 • 100 mM NaCl • 1 mM DTT • 0.01% NP40
Final Assay Concentrations:
Kinase: Kinase conc. yielding 50% substrate turnover as determined in titration experiment.
Adenosine 5′-[γ-^33P]triphosphate: 12.5 μCi/ml (Amersham Biosciences, BF1000)
Pipetting Sequence: • 1) Add 10 μl 4-fold concentrated substrate in 3-fold concentrated reaction buffer to each well of assay plate • 2) Add 10 μl 4-fold concentrated inhibitor in 4% DMSO in H2O to each well except to C− and C+ wells (starting point: final inhibitor concentration 10 μM; IC50 determination based on dilution series) • 3) Add 10 μl 4% DMSO in H2O to C− and C+ wells • 4) Add 10 μl 500 mM EDTA in H2O to C− wells • 5) Add 10 μl 50 μCi/ml adenosine 5′-[γ-^33P]triphosphate in H2O+4-fold cold ATP to each well • 6) Add 10 μl 4-fold concentrated kinase in reaction buffer to each well • 7) Incubate 1 hr at room temperature • 8) Add 10 μl 50 mM EDTA in H2O to each well except to C− wells • 9) Prepare MAPH plates by adding 200 μl 0.75% H3PO4 to each well • 10) Exhaust 0.75% H3PO4 using Millipore vacuum station • 11) Add 60 μl 0.75% H3PO4 to each well of MAPH filter plate • 12) Transfer 30 μl sample per well from assay plate to corresponding well of MAPH filter plate • 13) Incubate 30 min at room temperature • 14) Wash each well of MAPH filter plates 3× with 200 μl 0.75% H3PO4 using Millipore vacuum station • 15) Add 20 μl scintillation liquid to each well of MAPH filter plate • 16) Seal MAPH filter plate • 17) Store MAPH filter plate 30 min in darkness • 18) Quantify radioactivity using scintillation counter (MicroBeta, Perkin-Elmer)

[2] = test system: HT-29 tumor cells; test: Anti-proliferative activity, SRB assay; format: cell-based, human; settings: 72 hours exposure, read-out: CELLULAR IC50 HT-29
Protocol: We observed the surprising finding that compounds of the invention were useful in inhibiting proliferation of HT-29 tumor cells (see Table 3).
3,000-15,000 cells/well were exposed to the test compounds at various concentrations appropriate to determine an IC50, for 72 hours, and cell proliferation was measured using the SRB assay according to Shekan et al (J Natl Cancer Inst (1990) 82, 1107-112) in order to estimate the IC50 values shown in Table 3. Briefly, cells were plated in 96 well dishes 24 hours prior to compound addition. The assay was terminated with the addition of cold TCA to a final concentration of 10% and the plates were incubated for one hour at 4° C. The plates were then washed 5 times with water and 100 μl of a Sulforhodamine B solution (4%) was added to each well. The plate was then incubated for 10 minutes at room temperature before removal of unbound dye by washing with 1% acetic acid. The bound dye was solubilized with 10 mM Trizma base and the absorbance read at OD570. Inhibitory activity of the compounds was calculated as % inhibition of cell proliferation compared to cells treated with the solvent (DMSO).

B-Raf delta1-415, sequence (P15056 416-766): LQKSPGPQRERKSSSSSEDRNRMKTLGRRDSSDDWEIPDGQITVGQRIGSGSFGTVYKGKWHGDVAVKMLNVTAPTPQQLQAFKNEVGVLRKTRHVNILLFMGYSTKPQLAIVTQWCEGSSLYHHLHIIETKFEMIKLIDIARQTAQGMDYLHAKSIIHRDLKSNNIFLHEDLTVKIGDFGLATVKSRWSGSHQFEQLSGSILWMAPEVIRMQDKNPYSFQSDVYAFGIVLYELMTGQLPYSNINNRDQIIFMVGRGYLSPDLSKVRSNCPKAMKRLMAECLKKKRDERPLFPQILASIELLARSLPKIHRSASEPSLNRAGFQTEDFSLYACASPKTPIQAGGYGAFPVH

Compound | IC50 [1] | IC50 ([2]; Homo sapiens, HT-29, 72 h) | IC50 [2]
COn1c(=O)c(-c2c(Cl)cccc2Cl)cc2cnc(Nc3ccc(CNS(C)(=O)=O)cc3)nc21 [Compound 120, 6-(2,6-Dichlorophenyl)-8-methoxy-2-(4-methylsulfonylaminomethyl-phenyl)-amino-pyrido[2,3-d]pyrimidin-7-one] | < 100 nM | < 1000 nM | –
COCCOn1c(=O)c(-c2c(F)cccc2Cl)cc2cnc(Nc3ccc(N4CCOCC4)cc3)nc21 [Compound 121] | < 100 nM | < 1000 nM | –
CCNS(=O)(=O)c1cccc(Nc2ncc3cc(-c4c(Cl)cccc4Cl)c(=O)n(OC)c3n2)c1 [Compound 122, 6-(2,6-Dichlorophenyl)-2-(3-ethylaminosulfonylphenyl)-amino-8-methoxy-pyrido[2,3-d]pyrimidin-7-one] | < 500 nM | < 1000 nM | –
CCN(CC)S(=O)(=O)c1cccc(Nc2ncc3cc(-c4c(Cl)cccc4Cl)c(=O)n(OC)c3n2)c1 [Compound 123, 6-(2,6-Dichlorophenyl)-2-(3-diethylaminosulfonylphenyl)-amino-8-methoxy-pyrido[2,3-d]pyrimidin-7-one] | > 1000 nM | < 10000 nM | –
COn1c(=O)c(-c2c(Cl)cccc2Cl)cc2cnc(Nc3ccc(Cn4cccn4)cc3)nc21 [Compound 124, 6-(2,6-dichlorophenyl)-8-methoxy-2-(4-(pyrazol-1-ylmethyl)phenyl)-amino-pyrido[2,3-d]pyrimidin-7-one] | < 500 nM | < 1000 nM | –
CNS(=O)(=O)Cc1ccc(Nc2ncc3cc(-c4c(Cl)cccc4Cl)c(=O)n(OC)c3n2)cc1 [Compound 125, 6-(2,6-dichlorophenyl)-8-methoxy-2-(4-(methylaminosulfonylmethyl)phenyl)-amino-pyrido[2,3-d]pyrimidin-7-one] | < 100 nM | < 1000 nM | –
COn1c(=O)c(-c2c(Cl)cccc2Cl)cc2cnc(Nc3cccc(S(=O)(=O)NCCO)c3)nc21 [Compound 126, 6-(2,6-Dichlorophenyl)-2-(3-(2-hydroxyethyl)aminosulfonyl-phenyl)-amino-8-methoxy-pyrido[2,3-d]pyrimidin-7-one] | < 100 nM | < 1000 nM | –
COn1c(=O)c(-c2c(Cl)cccc2Cl)cc2cnc(Nc3cccc(S(=O)(=O)N4CCOCC4)c3)nc21 [Compound 127, 6-(2,6-Dichlorophenyl)-2-(3-morpholinosulfonylphenyl)-amino-8-methoxy-pyrido[2,3-d]pyrimidin-7-one] | < 500 nM | < 1000 nM | –
CCOn1c(=O)c(-c2c(F)cccc2Cl)cc2cnc(Nc3ccc(N4CCOCC4)cc3)nc21 [Compound 128] | < 100 nM | < 1000 nM | –
O=c1c(-c2c(F)cccc2Cl)cc2cnc(Nc3ccc(N4CCOCC4)cc3)nc2n1OCC1CC1 [Compound 129] | < 100 nM | < 1000 nM | –
COn1c(=O)c(-c2c(Cl)cccc2Cl)cc2cnc(Nc3cccc(-c4nnn[nH]4)c3)nc21 [Compound 130, 6-(2,6-Dichlorophenyl)-8-methoxy-2-(3-tetrazol-5-ylphenyl)-amino-pyrido[2,3-d]pyrimidin-7-one] | < 500 nM | > 10000 nM | –
CNC(=O)c1cccc(Nc2ncc3cc(-c4c(Cl)cccc4Cl)c(=O)n(OC)c3n2)c1 [Compound 131, 6-(2,6-Dichlorophenyl)-8-methoxy-2-(3-methylaminocarbonylphenyl)-amino-pyrido[2,3-d]pyrimidin-7-one] | < 100 nM | < 1000 nM | –
O=c1c(-c2c(F)cccc2Cl)cc2cnc(Nc3ccc(N4CCOCC4)cc3)nc2n1OCc1cccnc1 [Compound 132] | < 100 nM | < 1000 nM | –
COn1c(=O)c(-c2c(Cl)cccc2Cl)cc2cnc(Nc3ccc(C(F)(F)F)c(Cl)c3)nc21 [Compound 133, 2-(3-Chloro-4-trifluoromethylphenyl)-amino-6-(2,6-dichlorophenyl)-8-methoxy-pyrido[2,3-d]pyrimidin-7-one] | > 1000 nM | < 10000 nM | –
COn1c(=O)c(-c2c(Cl)cccc2Cl)cc2cnc(Nc3cccc(Cn4cncn4)c3)nc21 [Compound 134, 6-(2,6-Dichlorophenyl)-8-methoxy-2-(3-(1,2,4-triazol-1-ylmethyl)phenyl)-amino-pyrido[2,3-d]pyrimidin-7-one] | < 100 nM | < 1000 nM | –
COn1c(=O)c(-c2c(Cl)cccc2Cl)cc2cnc(Nc3ccncn3)nc21 [Compound 135, 6-(2,6-Dichlorophenyl)-8-methoxy-2-(pyrimidin-4-yl)-amino-pyrido[2,3-d]pyrimidin-7-one] | < 500 nM | < 10000 nM | –
COn1c(=O)c(-c2c(F)cccc2Cl)cc2cnc(Nc3ccc(N4CCOCC4)cc3)nc21 [Compound 136] | < 100 nM | < 1000 nM | –
COn1c(=O)c(-c2c(Cl)cccc2Cl)cc2cnc(Nc3cc(C(=O)N4CCOCC4)n(C)c3)nc21 [Compound 137, 6-(2,6-Dichlorophenyl)-8-methoxy-2-(5-morpholinocarbonyl-1-methyl-pyrrol-3-yl)-amino-pyrido[2,3-d]pyrimidin-7-one] | < 100 nM | < 1000 nM | –
COn1c(=O)c(-c2c(Cl)cccc2Cl)cc2cnc(Nc3nc(C(=O)N(C)CCO)cs3)nc21 [Compound 138, 6-(2,6-Dichlorophenyl)-8-methoxy-2-(4-N-(2-hydroxyethyl)-N-methyl-aminocarbonyl-thiazol-2-yl)-amino-pyrido[2,3-d]pyrimidin-7-one] | < 1000 nM | – | < 10000 nM
COn1c(=O)c(-c2c(Cl)cccc2Cl)cc2cnc(Nc3cc(C(=O)N(C)CCOC(=O)C(C)(C)C)n(C)c3)nc21 [Compound 140, 6-(2,6-Dichlorophenyl)-8-methoxy-2-(5-N-(2-(2,2-dimethylpropanoyl)oxyethyl)-N-methyl-aminocarbonyl-1-methyl-pyrrol-3-yl)-amino-pyrido[2,3-d]pyrimidin-7-one] | < 500 nM | < 1000 nM | –
COn1c(=O)c(-c2c(Cl)cccc2Cl)cc2cnc(Nc3cc(C(=O)N(C)CCOC(=O)c4ccccc4)n(C)c3)nc21 [Compound 141] | < 500 nM | < 1000 nM | –
COn1c(=O)c(-c2c(Cl)cccc2Cl)cc2cnc(Nc3csc(C(=O)N4CCN(C)CC4)c3)nc21 [Compound 142, 6-(2,6-Dichlorophenyl)-8-methoxy-2-(5-(4-methylpiperazino)carbonyl-thiophen-3-yl)-amino-pyrido[2,3-d]pyrimidin-7-one] | < 100 nM | < 1000 nM | –
O=c1c(-c2c(F)cccc2Cl)cc2cnc(Nc3ccc(N4CCOCC4)cc3)nc2n1OCC1CCOCC1 [Compound 143] | < 100 nM | < 1000 nM | –
COn1c(=O)c(-c2c(Cl)cccc2Cl)cc2cnc(Nc3ccc(CO)cc3)nc21 [Compound 144, 6-(2,6-Dichlorophenyl)-2-(4-hydroxymethylphenyl)-amino-8-methoxy-pyrido[2,3-d]pyrimidin-7-one] | < 100 nM | < 10000 nM | –
COn1c(=O)c(-c2c(Cl)cccc2Cl)cc2cnc(NCc3ccccc3)nc21 [Compound 145, 6-(2,6-Dichlorophenyl)-8-methoxy-2-phenylmethylamino-pyrido[2,3-d]pyrimidin-7-one] | < 10000 nM | < 10000 nM | –
COn1c(=O)c(-c2c(Cl)cccc2Cl)cc2cnc(NCc3cccnc3)nc21 [Compound 146, 6-(2,6-Dichlorophenyl)-8-methoxy-2-pyrid-3-ylmethylamino-pyrido[2,3-d]pyrimidin-7-one] | < 500 nM | < 10000 nM | –
COn1c(=O)c(-c2c(Cl)cccc2Cl)cc2cnc(NCc3ccncc3)nc21 [Compound 147, 6-(2,6-Dichlorophenyl)-8-methoxy-2-pyrid-4-ylmethylamino-pyrido[2,3-d]pyrimidin-7-one] | < 500 nM | < 10000 nM | –
